Assay [1] deals with wild type PRC2 (wtPRC2) complex (Homo sapiens (Human), UniProt Q15910). As to the kind of experiment: EZH2 LC-MS assay (LC-Qualified). The class given is biochemical. The following applies: (a) LC-Qualified assay. As to the method: Representative compounds of the invention were serially and separately diluted 3-fold in DMSO to obtain twelve concentrations. […] Solutions (6 μL) of 80 nM wild type PRC2 (wtPRC2) complex and 60 μM SAM in reaction buffer (20 mM Tris, pH 8.0, 0.1% BSA, 0.01% Triton, 0.5 mM DTT) were added to the wells that were then incubated with the test compound for 20 min. A 6 μL solution of 3 μM of the substrate peptide H3K27me1 (histone H3[21-44]-K27me1-biotin) and 6 μM regulatory peptide H3K27me3 (histone H3[21-44]-K27me3) in reaction buffer was added to initiate each reaction. […] The data were fit to a dose response equation using the program Helios to get the IC50 values of the test compound.

In assay [2] the target is EZH2 (Homo sapiens (Human), UniProt Q15910). The assay can be described thus: ELISA (H3K27 methylation) assay in G401 cell. The format is cell-based. The settings on record: (b) ELISA Qualified assay, 48 h. As to the method:
Representative compounds of the invention were serially and separately diluted 3-fold in DO to obtain a total of eight or twelve concentrations. Then the compounds were added to G401 cell cultured in 384-well plate at 1:500 dilution to obtain the highest concentration of 20 μM. The cells were further cultured for 48 h before ELISA procedure.
ELISA protocol: Cell lysates were transferred to the wells of a 384-well plate and the final volume was adjusted to 50 μL per well with PBS. The plate was sealed, centrifuged at 2,000 rpm for 2 min and incubated at 4° C. for about 16 h. The plate was washed with TBST buffer (1×TBS (10×TBS: 24.2 g Tris (Sigma, T6066), 80 g NaCl (Sigma, S3014) to 1 L of water and adjust pH to 7.6 with HCl) with 0.1% Tween-20). Blocking buffer (TBST, 5% BSA; 50 μL per well) was added and the plate was incubated for 1 h at rt. The blocking buffer was removed and primary antibody was added (30 μL per well). […] The primary antibody was incubated in the plate at rt for 1 h. The wells were washed with TBST and incubated with secondary antibody for 1 h at rt.
After 1 h of incubation at rt, the wells were washed with TBST. […] The signal was read using a PerkinElmer Envision Reader. The H3K27 methylation readouts were normalized using H3 signal and then percentage inhibition was calculated against the samples treated with DO. The data were fit to a dose response curve using the program Helios to get the IC50 values of the test compound.
On the technique in general: ELISA stands for enzyme-linked immunosorbent assay.

This note sets out measurements from patent US12544374B2, “AZA-quinoline compounds and uses thereof” (Novartis AG, priority 2019, dated 2026).

Sequence of wild type PRC2 (wtPRC2) complex (Q15910 whole entry): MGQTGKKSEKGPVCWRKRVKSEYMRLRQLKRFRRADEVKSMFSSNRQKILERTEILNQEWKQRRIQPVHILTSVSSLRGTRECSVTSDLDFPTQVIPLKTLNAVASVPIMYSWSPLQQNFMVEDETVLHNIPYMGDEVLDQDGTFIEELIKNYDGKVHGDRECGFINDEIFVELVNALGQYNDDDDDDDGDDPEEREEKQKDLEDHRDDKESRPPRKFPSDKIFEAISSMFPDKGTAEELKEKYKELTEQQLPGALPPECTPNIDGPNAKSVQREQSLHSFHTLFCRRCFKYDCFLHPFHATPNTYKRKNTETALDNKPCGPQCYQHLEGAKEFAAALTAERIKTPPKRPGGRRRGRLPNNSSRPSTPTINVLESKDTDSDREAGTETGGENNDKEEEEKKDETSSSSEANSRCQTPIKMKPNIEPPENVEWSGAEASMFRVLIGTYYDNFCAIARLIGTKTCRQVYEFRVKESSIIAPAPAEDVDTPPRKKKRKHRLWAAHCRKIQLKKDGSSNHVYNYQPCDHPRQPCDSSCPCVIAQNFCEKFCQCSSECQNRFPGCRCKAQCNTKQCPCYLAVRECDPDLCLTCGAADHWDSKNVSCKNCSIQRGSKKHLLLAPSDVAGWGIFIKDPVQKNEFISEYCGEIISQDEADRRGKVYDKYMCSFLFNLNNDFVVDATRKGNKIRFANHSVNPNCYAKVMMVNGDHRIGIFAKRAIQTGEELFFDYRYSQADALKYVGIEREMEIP
Sequence of wild type PRC2 (wtPRC2) complex (Q15022 whole entry partner): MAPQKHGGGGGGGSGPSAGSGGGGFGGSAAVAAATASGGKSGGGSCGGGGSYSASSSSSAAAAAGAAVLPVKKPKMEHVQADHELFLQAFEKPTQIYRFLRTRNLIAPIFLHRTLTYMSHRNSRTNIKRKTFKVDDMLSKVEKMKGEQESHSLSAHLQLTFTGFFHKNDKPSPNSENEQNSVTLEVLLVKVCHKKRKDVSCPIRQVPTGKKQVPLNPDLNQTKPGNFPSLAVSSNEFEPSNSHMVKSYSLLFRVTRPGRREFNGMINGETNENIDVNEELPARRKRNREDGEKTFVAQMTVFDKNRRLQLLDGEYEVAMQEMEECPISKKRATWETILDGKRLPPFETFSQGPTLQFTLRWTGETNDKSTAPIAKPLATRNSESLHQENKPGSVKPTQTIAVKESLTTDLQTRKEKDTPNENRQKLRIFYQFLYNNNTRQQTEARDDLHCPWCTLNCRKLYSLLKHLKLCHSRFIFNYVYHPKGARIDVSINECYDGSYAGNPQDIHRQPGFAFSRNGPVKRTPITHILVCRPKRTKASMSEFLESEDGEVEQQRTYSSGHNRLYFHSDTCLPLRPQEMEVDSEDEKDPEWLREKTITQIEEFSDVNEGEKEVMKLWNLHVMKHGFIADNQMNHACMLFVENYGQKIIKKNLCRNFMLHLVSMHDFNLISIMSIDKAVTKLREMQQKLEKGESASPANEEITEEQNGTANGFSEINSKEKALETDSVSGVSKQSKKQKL
Sequence of wild type PRC2 (wtPRC2) complex (O75530 whole entry partner): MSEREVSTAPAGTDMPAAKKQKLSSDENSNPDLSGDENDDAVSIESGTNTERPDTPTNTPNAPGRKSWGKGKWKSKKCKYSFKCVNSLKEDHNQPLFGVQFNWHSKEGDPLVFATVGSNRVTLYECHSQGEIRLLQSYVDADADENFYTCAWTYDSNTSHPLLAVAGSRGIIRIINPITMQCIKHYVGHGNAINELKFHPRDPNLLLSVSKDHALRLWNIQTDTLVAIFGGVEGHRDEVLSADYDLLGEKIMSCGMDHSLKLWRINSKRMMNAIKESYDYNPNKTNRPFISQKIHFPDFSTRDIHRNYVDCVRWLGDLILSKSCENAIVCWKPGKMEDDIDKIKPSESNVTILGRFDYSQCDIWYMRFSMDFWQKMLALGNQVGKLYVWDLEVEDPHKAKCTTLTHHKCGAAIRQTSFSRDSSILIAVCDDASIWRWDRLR
Sequence of wild type PRC2 (wtPRC2) complex (Q09028 whole entry partner): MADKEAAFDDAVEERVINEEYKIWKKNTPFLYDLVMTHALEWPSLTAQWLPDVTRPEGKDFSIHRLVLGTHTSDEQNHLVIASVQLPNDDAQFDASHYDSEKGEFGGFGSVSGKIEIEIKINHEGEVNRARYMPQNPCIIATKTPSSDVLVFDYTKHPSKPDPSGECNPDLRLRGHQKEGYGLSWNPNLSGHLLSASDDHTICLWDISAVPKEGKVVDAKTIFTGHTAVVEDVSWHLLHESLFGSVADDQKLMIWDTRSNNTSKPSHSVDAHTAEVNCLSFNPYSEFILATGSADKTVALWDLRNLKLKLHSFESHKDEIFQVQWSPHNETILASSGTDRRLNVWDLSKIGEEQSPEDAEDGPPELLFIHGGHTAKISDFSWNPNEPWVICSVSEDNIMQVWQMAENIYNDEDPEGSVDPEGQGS
Sequence of wild type PRC2 (wtPRC2) complex (Q6ZN18 whole entry partner): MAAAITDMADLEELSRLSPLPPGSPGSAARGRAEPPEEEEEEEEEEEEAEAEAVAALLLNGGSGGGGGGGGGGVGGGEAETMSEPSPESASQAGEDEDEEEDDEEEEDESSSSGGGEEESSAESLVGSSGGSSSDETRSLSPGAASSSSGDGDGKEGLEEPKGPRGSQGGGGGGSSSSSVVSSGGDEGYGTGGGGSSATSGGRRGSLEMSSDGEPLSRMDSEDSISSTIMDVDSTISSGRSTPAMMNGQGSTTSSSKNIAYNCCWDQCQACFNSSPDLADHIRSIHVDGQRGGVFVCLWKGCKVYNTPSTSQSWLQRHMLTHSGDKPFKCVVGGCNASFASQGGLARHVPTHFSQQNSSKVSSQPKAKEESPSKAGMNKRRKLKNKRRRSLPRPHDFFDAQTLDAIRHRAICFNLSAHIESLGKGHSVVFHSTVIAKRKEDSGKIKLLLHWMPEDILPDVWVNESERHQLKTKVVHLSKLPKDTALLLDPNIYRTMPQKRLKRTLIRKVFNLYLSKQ
Sequence of EZH2 (Q15910 whole entry): as the sequence (Q15910 whole entry) above
Sequence of EZH2 (Q15022 whole entry partner): as the sequence (Q15022 whole entry partner) above
Sequence of EZH2 (O75530 whole entry partner): as the sequence (O75530 whole entry partner) above
Sequence of EZH2 (Q09028 whole entry partner): as the sequence (Q09028 whole entry partner) above

Broadly, the IC50 is the concentration at which inhibition is half-maximal. Read a low IC50 as higher potency. Take `CC(C(=O)N1CC(O)C1)c1cnc(NC[C@H]2CC[C@H](Nc3ccc4ccnc(Cl)c4n3)CC2)nc1` (mixture of isomers) [Compound C69, 2-(2-((((1,4-trans)-4-((8-chloro-1,7-naphthyridin-2-yl)amino)cyclohexyl)methyl)amino)pyrimidin-5-yl)-1-(3-hydroxyazetidin-1-yl)propan-1-one]: the concentration for half-maximal inhibition (IC50) came to 0.035 µM in assay [1] and 0.136 µM in assay [2].

Consider `O=C(c1cnc(NC[C@H]2CC[C@H](Nc3ccc4ccnc(Cl)c4n3)CC2)nc1)N1CCOCC1` [Compound C22, (2-((((1,4-trans)-4-((8-chloro-1,7-naphthyridin-2-yl)amino)cyclohexyl)methyl)amino)pyrimidin-5-yl)(morpholino)methanone], for which the IC50 in assay [1] came out at 0.046 µM; in assay [2], 0.188 µM.

On to `Nc1cnc(NC[C@H]2CC[C@H](Nc3ccc4ccnc(Cl)c4n3)CC2)nc1` [Compound C14, N^2-(((1,4-trans)-4-((8-chloro-1,7-naphthyridin-2-yl)amino)cyclohexyl)methyl)pyrimidine-2,5-diamine], for which the half-inhibitory concentration (IC50) in assay [1] was 0.116 µM; in assay [2] it was 0.056 µM.

Turning to `COc1nccc2ccc(N[C@H]3CC[C@H](CNc4ncc(NC(=O)C5CNC5)cn4)CC3)nc12` [Compound C2, N-(2-((((1,4-trans)-4-((8-methoxy-1,7-naphthyridin-2-yl)amino)cyclohexyl)methyl)amino)pyrimidin-5-yl)azetidine-3-carboxamide], the IC50 in assay [1] came out at 0.087 µM; in assay [2] it was 0.783 µM.

Take `O=C(Cc1cnc(NC[C@H]2CC[C@H](Nc3ccc4ccnc(Cl)c4n3)CC2)nc1)N1CC(O)C1` [Compound C38, 2-(2-((((1,4-trans)-4-((8-chloro-1,7-naphthyridin-2-yl)amino)cyclohexyl)methyl)amino)pyrimidin-5-yl)-1-(3-hydroxyazetidin-1-yl)ethan-1-one]: the values for the IC50 in assay [1] and in assay [2] were 0.024 µM and 0.029 µM, respectively.

Turning to `O=C(c1cnc(NC[C@H]2CC[C@H](Nc3ccc4ccnc(Cl)c4n3)CC2)nc1)N1CCNCC1` [Compound C24, (2-((((1,4-trans)-4-((8-chloro-1,7-naphthyridin-2-yl)amino)cyclohexyl)methyl)amino)pyrimidin-5-yl)(piperazin-1-yl)methanone], the concentration for half-maximal inhibition (IC50) in assay [1] was found to be 0.112 µM; in assay [2], 0.296 µM.

Regarding `COc1nccc2ccc(N[C@H]3CC[C@H](CNc4ncc(C(=O)N5CCN(C)CC5)cn4)CC3)nc12` [Compound C11, (2-((((1,4-trans)-4-((8-methoxy-1,7-naphthyridin-2-yl)amino)cyclohexyl)methyl)amino)pyrimidin-5-yl)(4-methylpiperazin-1-yl)methanone], the 50% inhibitory concentration (IC50) in assay [1] amounted to 0.12 µM; in assay [2], 0.029 µM.

For `CS(=O)(=O)N1CCN(Cc2cnc(NC[C@H]3CC[C@H](Nc4ccc5ccnc(Cl)c5n4)CC3)nc2)CC1` [Compound C26, 8-chloro-N-((1,4-trans)-4-(((5-((4-(methylsulfonyl)piperazin-1-yl)methyl)pyrimidin-2-yl)amino)methyl)cyclohexyl)-1,7-naphthyridin-2-amine], the IC50 in assay [1] was 0.012 µM; in assay [2] it was 0.006 µM.

With `CNc1nccc2ccc(N[C@H]3CC[C@H](CNc4ncc(N)cn4)CC3)nc12` [Compound C62, N^2-((1,4-trans)-4-(((5-aminopyrimidin-2-yl)amino)methyl)cyclohexyl)-N^8-methyl-1,7-naphthyridine-2,8-diamine], the concentration for half-maximal inhibition (IC50) in assay [1] is 0.149 µM; in assay [2] it was 0.031 µM.

For the molecule `COc1nccc2ccc(N[C@H]3CC[C@H](CNc4ncc(C(=O)N5CCOCC5)cn4)CC3)nc12` [Compound C10, (2-((((1,4-trans)-4-((8-methoxy-1,7-naphthyridin-2-yl)amino)cyclohexyl)methyl)amino)pyrimidin-5-yl)(morpholino)methanone], the IC50 came out at 0.194 µM in assay [1] and 0.191 µM in assay [2].

As for `CCN(CCC#N)C(=O)Cc1cnc(NC[C@H]2CC[C@H](Nc3ccc4ccnc(Cl)c4n3)CC2)nc1` [Compound C50, 2-(2-((((1,4-trans)-4-((8-chloro-1,7-naphthyridin-2-yl)amino)cyclohexyl)methyl)amino)pyrimidin-5-yl)-N-(2-cyanoethyl)-N-ethylacetamide], the half-inhibitory concentration (IC50) in assay [1] is 0.023 µM; in assay [2] it was 0.027 µM.

`COc1nccc2ccc(N[C@H]3CC[C@H](CNc4ncc(NC(=O)C5CN(C)C5)cn4)CC3)nc12` [Compound C3, N-(2-((((1,4-trans)-4-((8-methoxy-1,7-naphthyridin-2-yl)amino)cyclohexyl)methyl)amino)pyrimidin-5-yl)-1-methylazetidine-3-carboxamide]: the 50% inhibitory concentration (IC50) in assay [1] stood at 0.054 µM; in assay [2], 0.025 µM.

On to `OC1CN(Cc2cnc(NC[C@H]3CC[C@H](Nc4ccc5ccnc(Cl)c5n4)CC3)nc2)C1` [Compound C29, 1-((2-((((1,4-trans)-4-((8-chloro-1,7-naphthyridin-2-yl)amino)cyclohexyl)methyl)amino)pyrimidin-5-yl)methyl)azetidin-3-ol], for which the IC50 amounted to 0.02 µM in assay [1] and 0.022 µM in assay [2].

As for `Clc1nccc2ccc(N[C@H]3CC[C@H](CNc4ncc(-c5nnc[nH]5)cn4)CC3)nc12` [Compound C67, N-((1,4-trans)-4-(((5-(4H-1,2,4-triazol-3-yl)pyrimidin-2-yl)amino)methyl)cyclohexyl)-8-chloro-1,7-naphthyridin-2-amine], the results for the half-maximal inhibitory concentration (IC50) in assay [1] and in assay [2] were 0.029 µM and 0.036 µM, respectively.

Regarding `Nc1cnc(NC[C@H]2CC[C@H](Nc3ccc4ccnc(OC(F)F)c4n3)CC2)nc1` [Compound C66, N^2-(((1,4-trans)-4-((8-(difluoromethoxy)-1,7-naphthyridin-2-yl)amino)cyclohexyl)methyl)pyrimidine-2,5-diamine], the concentration for half-maximal inhibition (IC50) in assay [1] came to 0.204 µM; in assay [2], 0.16 µM.

On to `O=C(CCC(=O)N1CCOCC1)Nc1cnc(NC[C@H]2CC[C@H](Nc3ccc4ccnc(Cl)c4n3)CC2)nc1` [Compound C20, N-(2-((((1,4-trans)-4-((8-chloro-1,7-naphthyridin-2-yl)amino)cyclohexyl)methyl)amino)pyrimidin-5-yl)-4-morpholino-4-oxobutanamide], for which the IC50 in assay [1] was 0.068 µM; in assay [2], 0.127 µM.

Take `CC1(NCCc2cnc(NC[C@H]3CC[C@H](Nc4ccc5ccnc(Cl)c5n4)CC3)nc2)COC1` [Compound C47, 8-chloro-N-((1,4-trans)-4-(((5-(2-((3-methyloxetan-3-yl)amino)ethyl)pyrimidin-2-yl)amino)methyl)cyclohexyl)-1,7-naphthyridin-2-amine]: the results for the concentration for half-maximal inhibition (IC50) in assay [1] and in assay [2] were 0.051 µM and 0.032 µM, respectively.

For `CC(C(=O)N(C)C1COC1)c1cnc(NC[C@H]2CC[C@H](Nc3ccc4ccnc(Cl)c4n3)CC2)nc1` (mixture of isomers) [Compound C55, 2-(2-((((1,4-trans)-4-((8-chloro-1,7-naphthyridin-2-yl)amino)cyclohexyl)methyl)amino)pyrimidin-5-yl)-N-methyl-N-(oxetan-3-yl)propanamide], the IC50 was determined as 0.054 µM in assay [1] and 0.002 µM in assay [2].

Consider `COc1nccc2ccc(N[C@H]3CC[C@H](CNc4ncc(C(=O)NCC(C)O)cn4)CC3)nc12` (stereo partly drawn) [Compound C9, N-(2-hydroxypropyl)-2-((((1,4-trans)-4-((8-methoxy-1,7-naphthyridin-2-yl)amino)cyclohexyl)methyl)amino)pyrimidine-5-carboxamide], for which the IC50 is 0.105 µM in assay [1] and 0.061 µM in assay [2].
